This note sets out measurements from EP4620956A1, “PARP1 INHIBITORS” (Zhejiang Yangli Pharmaceutical Technology Co., Ltd., priority 2022, dated 2024).

The test system of one assay is MDA-MB-436. The assay can be described thus: Anti-proliferative activity (CellTiter-Glo, 7 days), MDA-MB-436. It counts as cell-based, human. To be noted: Homo sapiens, MDA-MB-436, 168 h, read-out: MDA-MB-436 IC50.
A further assay concerns MDA-MB-231. The assay can be described thus: Anti-proliferative activity (CellTiter-Glo, 7 days), MDA-MB-231. Format: cell-based, human. The conditions noted are these: Homo sapiens, MDA-MB-231, 168 h, read-out: MDA-MB-231 IC50.
The next assay has as its target T1, PARP3 (Homo sapiens, UniProt Q9Y6F1).
T1 construct: purchased BPS 80503
T1 sequence (Q9Y6F1 1-533): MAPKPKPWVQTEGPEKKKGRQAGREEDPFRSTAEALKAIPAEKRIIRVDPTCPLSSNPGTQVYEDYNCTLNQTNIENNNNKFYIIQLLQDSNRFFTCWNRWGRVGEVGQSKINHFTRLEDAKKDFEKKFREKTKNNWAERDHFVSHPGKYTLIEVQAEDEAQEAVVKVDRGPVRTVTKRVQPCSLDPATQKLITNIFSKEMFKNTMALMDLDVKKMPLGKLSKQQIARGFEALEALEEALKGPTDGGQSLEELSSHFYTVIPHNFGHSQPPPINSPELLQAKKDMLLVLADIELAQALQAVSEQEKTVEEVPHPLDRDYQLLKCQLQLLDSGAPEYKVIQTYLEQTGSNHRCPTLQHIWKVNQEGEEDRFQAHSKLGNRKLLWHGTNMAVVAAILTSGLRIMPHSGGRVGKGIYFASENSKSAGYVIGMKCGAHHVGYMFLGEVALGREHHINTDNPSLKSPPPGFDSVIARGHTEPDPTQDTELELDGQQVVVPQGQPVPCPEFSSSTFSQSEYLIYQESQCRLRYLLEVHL
The assay can be described thus: Inhibition of PARP3 enzyme activity (chemiluminescence). It counts as biochemical. To be noted: ratio relative to the PARP1 enzyme activity.

Another assay addresses T2, PARP2 (Homo sapiens, UniProt Q9UGN5).
T2 construct: purchased BPS 80502
The assay can be described thus: PARP2-DNA trapping, fluorescence polarization (FP). It counts as biochemical.

The test system of another assay is A549 WT. The experiment in a line: Cellular PARylation inhibition, high-content imaging, A549 WT. The conditions noted are these: Homo sapiens, PARylation at the cellular level. Format: cell-based. As for the experimental part: The inhibitory effect of the compounds on PARP1/PARP2 enzyme activity at the cellular level was detected using high-content imaging. A549 WT, PARP1-KO and PARP2-KO cell lines were established in-house, and the cells were revived. After the cells were stable, a sufficient number of cells were collected and 100 µL of the cell suspension was seeded into a 96-well plate. The next day, the example compounds with serially diluted concentrations were added. […] The plate was incubated for 1.5 hours (A549 WT and PARP2-KO cell lines) or 2 hours (PARP1-KO cell line). After removing the supernatant, 0.4 mM H2O2 was added and incubation was carried out for 10 minutes (A549 WT and PARP2-KO cell lines) or 1.5 mM H2O2 was added and incubation was carried out for 15 minutes (PARP1-KO cell line) to induce extensive cellular DNA damage. After removing the supernatant, the cells were fixed with 4% paraformaldehyde for 20 minutes, followed by treatment with 0.5% Triton X-100 for 20 minutes to increase the permeability of the cell membrane. After that, the cells were incubated with 3% BSA for 1 hour to prevent non-specific binding. […] The cell nuclei were stained for 30 minutes by adding 50 µL DAPI (invitrogen, R37606). After washing twice with PBS, images were acquired on OPERETTA CLS™ (PE) by scanning the cells under a 20x water objective lens in non-confocal mode, with 5 fields of view captured per well. […] The inhibition rate was calculated using the fluorescence values from the Max and Min wells, and the dose-response curve was fitted using the analysis software GraphPad Prism 5 to obtain the IC50 value of each compound for the enzyme activity.

The test system of the next assay is DLD-1 BRCA2^-/-. The experiment in a line: Anti-proliferative activity (CellTiter-Glo, 7 days), DLD-1 BRCA2-/-. It counts as cell-based, human. To be noted: Homo sapiens, DLD-1, 168 h; BRCA2-mutated, 7 days.
The next assay concerns DLD-1 WT. The assay can be described thus: Anti-proliferative activity (CellTiter-Glo, 7 days), DLD-1 WT. It counts as cell-based, human. The conditions noted are these: Homo sapiens, DLD-1, 168 h; BRCA2-normal, 7 days. How it is done:
The anti-proliferation experiment of the compounds on tumour cells adopted the most widely used ATP concentration-based detection method at present. MDA-MB-231 and MDA-MB-436 cell lines were obtained from ATCC, DLD-1 human colourectal adenocarcinoma epithelial cells and DLD-1 BRCA2^-/- cells were obtained from Horizon, and the cells were revived. After the cells were stable, the cells were collected. When the viable cell count exceeded 90%, 450-500 cells were seeded into a 384-well plate. The next day, the example compounds with serially diluted concentrations were added. Only buffer was added to the Max well, and 50 µM AZD2281 was added to the Min well. The plate was incubated for 7 days, and on the eighth day, CellTiter-Glo® reagent (Promega, G7573) was added. The plate was incubated at room temperature for 30 minutes, and the values were read on Envision (PE). The inhibition rate was calculated using the fluorescence values from the Max and Min wells, and the dose-response curve was fitted using the analysis software GraphPad Prism 5 to obtain the IC50 value of each compound for the enzyme activity.

A further assay addresses T3, PARP6 (Homo sapiens, UniProt Q2NL67).
T3 construct: purchased BPS 80506
The experiment in a line: Inhibition of PARP6 enzyme activity (chemiluminescence). Format: biochemical.

For the next assay, the target named is T4, PARP11 (Homo sapiens, UniProt Q9NR21).
T4 construct: purchased BPS 80511
T4 sequence (Q9NR21 1-338): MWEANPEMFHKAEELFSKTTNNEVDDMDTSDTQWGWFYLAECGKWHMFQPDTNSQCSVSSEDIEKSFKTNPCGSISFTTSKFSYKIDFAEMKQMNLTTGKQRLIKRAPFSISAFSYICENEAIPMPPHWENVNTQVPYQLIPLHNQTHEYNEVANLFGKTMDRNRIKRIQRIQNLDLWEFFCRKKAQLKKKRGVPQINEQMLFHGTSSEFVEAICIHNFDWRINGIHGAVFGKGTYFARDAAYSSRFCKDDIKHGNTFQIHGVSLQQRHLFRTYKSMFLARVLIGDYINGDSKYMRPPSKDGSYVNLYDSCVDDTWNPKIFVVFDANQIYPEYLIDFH
The assay can be described thus: Inhibition of PARP11 enzyme activity (chemiluminescent assay kit). Format: biochemical.

Assay [1] relates to MDA-MB-436 xenograft tumour. The assay can be described thus: Anti-tumour effect in MDA-MB-436 subcutaneous xenograft tumour mouse model. Format: in vivo. The conditions noted are these: same dose, MDA-MB-436 xenograft mice. How it is done: Example 4 was further verified in vivo. A subcutaneous xenograft tumour mouse model of the BRCA1-mutated MDA-MB-436 cell line was selected. Human breast cancer MDA-MB-436 cells (ATCC, HTB-130) were cultured in vitro in a monolayer, with the culture conditions of L-15 medium supplemented with 10% foetal bovine serum, 1% penicillin-streptomycin solution, and 0.01 mg/mL bovine insulin, and cultured at 37°C in a CO2-free incubator. The cells were routinely digested and passaged twice a week using trypsin-EDTA. When the cell confluency reached 80%-90%, the cells were harvested and counted, and 0.2 mL of 1 × 10^7 MDA-MB-436 cells were subcutaneously inoculated on the right back of each mouse (PBS : Matrigel = 1 : 1). When the mean tumour volume reached 152 mm^3, the mice were grouped for drug administration. The day of drug administration was set as Day 0. The tumour volume and the body weight of the mice were monitored twice a week, and the drug treatment lasted for 28 days.
The diameter of the tumour was measured with a vernier calliper. The tumour volume is calculated according to the following equation: V = 0.5a × b^2, where a and b represent the long and short diameters of the tumour, respectively. The tumour inhibition effect of the compound was evaluated by relative tumour shrinkage rate Reg%. Reg% reflects the rate of tumour volume reduction after treatment. Reg% = (V0-Vt)/V0×100%, where V0 is the tumour volume measured at the time of grouping for drug administration (i.e., d0), and Vt is the tumour volume measured at a certain time point.
The criteria for compound response in the mouse model were adapted from mRECIST (Modified Response Evaluation Criteria in Solid Tumours) (Gao et al, 2015), and are specifically defined as follows: [formula] • PR (Partial Response): BestResponse < −50% and BestAvgResponse < −20%; [formula] • SD (Stable Disease): BestResponse < 35% and BestAvgResponse < 30%; [formula] • PD (Progressive Disease): other cases; • ORR% is the sum of the proportions of Complete Response (CR) and Partial Response (PR).
Statistical analysis was performed using Prism software, including the mean value (Mean) and standard error of the mean (SEM) of the tumour volume at each time point for each group. For the statistical analysis of TV, the original TV data from each measurement were used to compare the differences between groups. Two-way ANOVA was applied to include the two factors, i.e., drug administration and time for analysis, followed by the Tukey's multiple comparisons test, wherein p < 0.05 was considered statistically significant.

[2] abbreviates: ratio relative to the PARP1 enzyme activity.

pIC50: −log10 of the molar value. Read-outs that look alike come from different tables or passages of the source.

T2 sequence (Q9UGN5 whole entry): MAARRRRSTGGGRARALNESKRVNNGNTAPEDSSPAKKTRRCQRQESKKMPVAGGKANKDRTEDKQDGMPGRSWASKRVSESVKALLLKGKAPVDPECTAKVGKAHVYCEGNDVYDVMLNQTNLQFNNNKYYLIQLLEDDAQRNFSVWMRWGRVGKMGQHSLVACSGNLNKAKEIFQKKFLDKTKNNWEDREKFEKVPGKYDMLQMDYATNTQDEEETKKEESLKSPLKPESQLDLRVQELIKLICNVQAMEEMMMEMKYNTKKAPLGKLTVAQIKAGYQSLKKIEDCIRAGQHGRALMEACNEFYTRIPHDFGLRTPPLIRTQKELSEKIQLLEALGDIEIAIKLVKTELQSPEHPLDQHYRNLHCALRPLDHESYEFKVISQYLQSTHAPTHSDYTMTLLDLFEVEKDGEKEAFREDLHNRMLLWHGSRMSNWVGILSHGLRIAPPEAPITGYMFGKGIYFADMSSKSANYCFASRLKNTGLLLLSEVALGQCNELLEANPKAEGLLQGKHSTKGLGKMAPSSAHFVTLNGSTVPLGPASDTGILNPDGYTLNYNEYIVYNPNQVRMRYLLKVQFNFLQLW
T3 sequence (Q2NL67 whole entry): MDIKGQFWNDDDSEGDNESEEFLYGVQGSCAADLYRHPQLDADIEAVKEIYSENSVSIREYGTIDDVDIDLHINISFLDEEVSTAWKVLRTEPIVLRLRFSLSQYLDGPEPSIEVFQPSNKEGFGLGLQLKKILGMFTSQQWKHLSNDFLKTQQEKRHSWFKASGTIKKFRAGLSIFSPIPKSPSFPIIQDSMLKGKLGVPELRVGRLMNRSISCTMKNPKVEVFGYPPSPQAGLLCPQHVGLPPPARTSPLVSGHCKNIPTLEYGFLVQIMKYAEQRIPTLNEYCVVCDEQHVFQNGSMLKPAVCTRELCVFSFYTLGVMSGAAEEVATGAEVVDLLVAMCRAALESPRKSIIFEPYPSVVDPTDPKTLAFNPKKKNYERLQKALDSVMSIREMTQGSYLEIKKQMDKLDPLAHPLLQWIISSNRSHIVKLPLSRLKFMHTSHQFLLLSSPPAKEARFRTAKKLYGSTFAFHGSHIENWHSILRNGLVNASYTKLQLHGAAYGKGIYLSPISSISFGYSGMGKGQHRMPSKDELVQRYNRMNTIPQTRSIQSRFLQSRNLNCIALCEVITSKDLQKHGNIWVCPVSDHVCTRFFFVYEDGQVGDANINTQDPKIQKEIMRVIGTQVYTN

For `O=C(c1cc(Cc2n[nH]c(=O)c3ccccc23)ccc1F)N1CCN(C(=O)C2CC2)CC1` [Olaparib, olaparib], the figures for the pIC50 with MDA-MB-436 and with MDA-MB-231 were 6.53 and 5.02, respectively. The “PARP3 multiple vs PARP1” value at PARP3 is 47. The Bottom at PARP2 (PARP2, 0.25 hour) is on record as -5.4; on PARP2 (PARP2, 0.5 hour) it was -2.7; on PARP2 (PARP2, 1 hour) it was 2.8; at PARP2 (PARP2, 2 hour), -2.0; at PARP2 (PARP2, 4 hour), -1.4; at PARP2 (PARP2, 8 hour), 1.8. Also, the Bottom on PARP2 (PARP2, 24 hour) is on record as 0.3; on PARP2 (PARP2, 48 hour), -1.6. The Hillslope at PARP2 (PARP2, 0.25 hour) is given as 1.2; at PARP2 (PARP2, 0.5 hour) it was 1.4; on PARP2 (PARP2, 1 hour), 2.0; at PARP2 (PARP2, 2 hour) it was 2.2; at PARP2 (PARP2, 4 hour), 1.9; at PARP2 (PARP2, 8 hour) it was 2.1. Besides, the Hillslope on PARP2 (PARP2, 24 hour) was 2.0; at PARP2 (PARP2, 48 hour), 1.8. Also, the Top at PARP2 (PARP2, 0.25 hour) is 107.8; at PARP2 (PARP2, 0.5 hour), 109.9; on PARP2 (PARP2, 1 hour), 109.4; at PARP2 (PARP2, 2 hour), 107.9; on PARP2 (PARP2, 4 hour), 107.2; at PARP2 (PARP2, 8 hour) it was 106.5. The Top on PARP2 (PARP2, 24 hour) is on record as 109.8; at PARP2 (PARP2, 48 hour), 110.6.
With `CCc1cc2ncc(CN3CCN(c4ccc(C(=O)NC)nc4)CC3)cc2[nH]c1=O` [AZD5305, reference compound], the pIC50 in the assay on A549 WT is 8.66; with MDA-MB-436 (BRCA1-mutated, 7 days) it was 8.71; with MDA-MB-231 (BRCA1-normal, 7 days), under 5.00; in the assay with DLD-1 BRCA2^-/- it was 8.67; in the assay with DLD-1 WT, under 5.00; against PARP6 (enzyme activity) it was 5.06. The pIC50 against PARP11 (enzyme activity) was 7.71. The “PARP6 multiple vs PARP1” value at PARP6 (setting [2]) was 20,619. Moreover, the “PARP11 multiple vs PARP1” value on PARP11 (setting [2]) was 46. For the same compound, the tumour regression entry in assay [1] (FIG. 3) is “promoted tumour regression”. The ORR in [1] (treatment 28 days) is 20%.
